# Laboratory results: patent EP2229935A1, “Peptide derivatives or pharmaceutically acceptable salts thereof, method for producing the same, use of said derivatives and pharmaceutical composition” (Nebolsin, Vladimir Evgenievich, priority 1997, dated 1999)
# What was measured:
# mongrel rats = assay: Antiischemic activity: necrosis zone after coronary artery occlusion (myocardial infarction); format: in vivo; settings: 4 hours after coronary artery occlusion, oral 4 days
# Experimental: Antiischemic activity of a compound was assessed by an integral test, i.e. effect on the necrosis zone area following reproduction of myocardial infarction in mongrel rats weighing 250-300 g.
# Effect of a compound on the necrosis zone area was studied in 4 hours after arterial occlusion in rats using a differential indicator method [Sernov L.N., Gatsura V.V. A differential indicator method for determinig ischemic and necrotic zone in experimental myocardial infarction in rats. Bulletin of Experimental Biology and Medicine (1989), No 5, pp. 534-535]. All the painful manipulations were performed on animals under Ethaminal anesthesia (Ethaminal - 40 mg/kg intraperitoneally). Experiment was carried out in 15 hours after the last compound administration. Each group included 8 animals.
# Groups of animals: • Group 1 - intact control -administration of normal saline four times. • Groups 2 and 3 - oral administration of the compound III at doses respectively 50 and 500 µg/kg for 4 days. • Group 4 - single intraperitoneal administration of Nicorandil at a dose 1 mg/kg immediately after occlusion.
# white mongrel male rats = assay: Carrageenan paw edema, oral administration (series I); format: in vivo
# Experimental: Experiment was carried out on white mongrel male rats weighing 280-300 g. Carrageenan-induced edema was caused according to the method of Winter et al. [[inter et al. In: De Rosa M., Giroud J.P., Willoughby D.A. Studies of the mediators of the acute inflammatory reponse induced in rats in different sites by carrageenan and turpentine. […] Paw volume measurement was done using a plethysmograph (Ugo Basile) 1, 3 and 4 hours after carrageenan administration. Inhibition of inflammatory reaction expressed in percent, was calculated according to the formula: 100-[(R-L(exper.))/(L):(R-L(control))/(L)x100](%) [formula] where R - the right paw volume, L - the left paw volume.
# Series I of experiment. […] The reference drug Naproxene was once administered at a dose 20 µg/kg 1 hour before edema induction. Each group included 10 animals.
# [1] = test system: Isolate HIV-1/IV17 of type 1 human immunodeficiency virus; assay: Viability of MT-4 cells acutely infected with HIV-1; format: cell-based; settings: day 7
# Experimental: Study was carried out on the culture of human lymphoblastoid cells MT-4. Isolate HIV-1/IV17 of type 1 human immunodeficiency virus from the collection of the D.I.Ivanovsky Institute for Virology was used in experiment. The test compounds of general formula (I): III, VI, VII were introduced into cellular culture at concentrations 1.0; 0.1 and 0.01 µg/ml. The reference drug Azidothymidine was introduced at a dose 0.05 µM/ml. The compounds were introduced into the culture of MT-4 cells at a dose 1000 TCD50 one hour prior to virus introduction. Viability of MT-4 cells was estimated by day 7 of experiment.
# Viability of cells was the main efficacy parameter of the test compounds.
# [2] = intragastral four times 50 µg/kg
smiles,measurement,setting,value
"O=C(O)CCCC(=O)NCCc1c[nH]cn1 [compound III, N-GLUTARYLHISTAMINE]","Ischemia zone, percent to the total myocardial mass",mongrel rats; 50 µg/kg,"27,2 ± 2,8%"
same,Necrosis zone percent to myocardial zone,mongrel rats; 50 µg/kg,"56,8 ± 2,7%"
same,"Necrosis zone, percent to the total myocardial mass",mongrel rats; 50 µg/kg,"15,4 ± 1,7%"
same,"Ischemia zone, percent to the total myocardial mass",mongrel rats; 500 µg/kg,"31,1 ± 3,1%"
same,Necrosis zone percent to myocardial zone,mongrel rats; 500 µg/kg,"54,3 ± 2,1%"
same,"Necrosis zone, percent to the total myocardial mass",mongrel rats; 500 µg/kg,"17,8 ± 1,0%"
same,Inflammation inhibition (%),white mongrel male rats; [2],30%
same,Volume increment,white mongrel male rats; [2],0.49 ± 0.07
same,Volume of paws (conditional units) left,white mongrel male rats; [2],1.23 ± 0.41 conditional units
same,Volume of paws (conditional units) Right,"white mongrel male rats; intragastral four times 50 µg/kg 72, 48, 24 and 1 hour before",1.72 ± 0.27 conditional units
same,protective effect against cytodestructive HIV-1 effect (viability of MT-4 cells),[1]; 1.0 and 0.1 µg/ml,comparable with the effect of the reference drug Azidothymidine
same,viability at 0.01 µg/mL,"[1]; Human immunodeficiency virus 1, MT4, 168 h, 0.01 µg/ml, series 1 (infected cells 10-17, non-infected 90), read-out: Viability of cells in percent",18%
same,viability at 0.1 µg/mL,"[1]; Human immunodeficiency virus 1, MT4, 168 h, 0.1 µg/ml, series 1 (infected cells 10-17, non-infected 90), read-out: Viability of cells in percent",39%
same,viability at 1 µg/mL,"[1]; Human immunodeficiency virus 1, MT4, 168 h, 1.0 µg/ml, series 1 (infected cells 10-17, non-infected 90), read-out: Viability of cells in percent",68%
